Experimental data published in ChEMBL document CHEMBL1201862, “PubChem BioAssay data set” (2004).
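All cell lines were grown in 96-well plates and treated with compound for 48 hours. GI50 marks 50% less growth.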 Active and inactive are the calls of the source. Rule as the data show it: active = GI50 up to about 1.1 µM and inactive = higher.

Key:
Test in all cases: inhibition of tumour cell growth, NCI panel, 48 h
[1] = system: UO-31
[2] = system: RXF 393
[3] = system: HT-29
[4] = system: SF-295
[5] = system: COLO 205
[6] = system: Malme-3M
[7] = system: SF-268
[8] = system: LOX IMVI
[9] = system: HCC 2998
[10] = system: OVCAR-8
[11] = system: CAKI-1
[12] = system: SNB-19
[13] = system: HL-60
[14] = system: UACC-257
[15] = system: K562
[16] = system: SK-MEL-28
[17] = system: IGROV-1
[18] = system: OVCAR-4
[19] = system: OVCAR-5
[20] = system: TK-10
[21] = system: DMS-114
[22] = system: A549
[23] = system: KM-20L2
[24] = system: RPMI-8226
[25] = system: EKVX
[26] = system: SK-MEL-5
[27] = system: SK-MEL-2
[28] = system: A498
[29] = system: SW-620
[30] = system: KM12
[31] = system: SNB-78
[32] = system: SK-OV-3
[33] = system: CCRF-CEM
[34] = system: SNB-75
[35] = system: NCI-H522
[36] = system: RXF 631
[37] = system: UACC-62
[38] = system: HOP-18
[39] = system: DMS-273
[40] = system: NCI-H23
[41] = system: ACHN
[42] = system: LXFL 529
[43] = system: U-251
[44] = system: SF-539
[45] = system: SN12C
[46] = system: MOLT-4
[47] = system: DLD-1
[48] = system: M14
[49] = system: HCT-15
[50] = system: NCI-H460
[51] = system: M19-MEL
[52] = system: NCI-H226
[53] = system: HCT-116
[54] = system: HOP-62
[55] = system: OVCAR-3
[56] = system: SR
[57] = system: XF498
[58] = system: 786-0

O=C(c1ccccc1)c1ccc2n[se]nc2c1
GI50 [1]: > 100 µM (inactive)
GI50 [2]: 40.9 µM (inactive)
GI50 [3]: 6.34 µM (inactive)
GI50 [4]: 7.4 µM (inactive)
GI50 [5]: 21.1 µM (inactive)
GI50 [6]: > 100 µM (inactive)
GI50 [7]: > 100 µM (inactive)
GI50 [8]: 29.4 µM (inactive)
GI50 [9]: 8.93 µM (inactive)
GI50 [10]: 73.5 µM (inactive)
GI50 [11]: 27.7 µM (inactive)
GI50 [12]: > 100 µM (inactive)
GI50 [13]: 3.56 µM (inactive)
GI50 [14]: > 100 µM (inactive)
GI50 [15]: 4.29 µM (inactive)
GI50 [16]: > 100 µM (inactive)
GI50 [17]: 50.6 µM (inactive)
GI50 [18]: 39.4 µM (inactive)
GI50 [19]: 36.5 µM (inactive)
GI50 [20]: > 100 µM (inactive)
GI50 [21]: 12.4 µM (inactive)
GI50 [22]: 34.8 µM (inactive)
GI50 [23]: 31.4 µM (inactive)
GI50 [24]: 28.4 µM (inactive)
GI50 [25]: 56.5 µM (inactive)
GI50 [26]: 11.8 µM (inactive)
GI50 [27]: > 100 µM (inactive)
GI50 [28]: 31.8 µM (inactive)
GI50 [29]: 10.3 µM (inactive)
GI50 [30]: 4.54 µM (inactive)
GI50 [31]: > 100 µM (inactive)
GI50 [32]: 35.1 µM (inactive)
GI50 [33]: 17.8 µM (inactive)
GI50 [34]: 18.4 µM (inactive)
GI50 [35]: 25.2 µM (inactive)
GI50 [36]: 18.8 µM (inactive)
GI50 [37]: 8.51 µM (inactive)
GI50 [38]: < 0.01 µM (active)
GI50 [39]: 10.3 µM (inactive)
GI50 [40]: 62.5 µM (inactive)
GI50 [41]: 7.03 µM (inactive)
GI50 [42]: 69.8 µM (inactive)
GI50 [43]: > 100 µM (inactive)
GI50 [44]: 17.9 µM (inactive)
GI50 [45]: 54.7 µM (inactive)
GI50 [46]: 23.9 µM (inactive)
GI50 [47]: 50 µM (inactive)
GI50 [48]: 19.1 µM (inactive)
GI50 [49]: 14 µM

Cc1cc(NCCCCCCNc2cc(C)nc3ccc(Cl)cc23)c2cc(Cl)ccc2n1
GI50 [1]: 23.5 µM (inactive)
GI50 [2]: 16.1 µM (inactive)
GI50 [3]: 15.2 µM (inactive)
GI50 [4]: 16.6 µM (inactive)
GI50 [5]: 18.3 µM (inactive)
GI50 [6]: 28.1 µM (inactive)
GI50 [50]: 14.8 µM (inactive)
GI50 [7]: 14.7 µM (inactive)
GI50 [8]: 14.9 µM (inactive)
GI50 [9]: 16.4 µM (inactive)
GI50 [10]: 18.5 µM (inactive)
GI50 [51]: 21.4 µM (inactive)
GI50 [11]: 33 µM (inactive)
GI50 [12]: 25.9 µM (inactive)
GI50 [13]: 7.4 µM (inactive)
GI50 [14]: 20 µM (inactive)
GI50 [15]: 2.49 µM (inactive)
GI50 [16]: 17.2 µM (inactive)
GI50 [18]: 20 µM (inactive)
GI50 [19]: 19.7 µM (inactive)
GI50 [20]: 27 µM (inactive)
GI50 [21]: 18.9 µM (inactive)
GI50 [22]: 20.8 µM (inactive)
GI50 [23]: 15.8 µM (inactive)
GI50 [24]: 47.4 µM (inactive)
GI50 [25]: 15.8 µM (inactive)
GI50 [26]: 18.3 µM (inactive)
GI50 [52]: > 100 µM (inactive)
GI50 [27]: 26.2 µM (inactive)
GI50 [28]: > 100 µM (inactive)
GI50 [30]: 17.2 µM (inactive)
GI50 [31]: 22.7 µM (inactive)
GI50 [32]: > 100 µM (inactive)
GI50 [33]: 3.63 µM (inactive)
GI50 [53]: 14.7 µM (inactive)
GI50 [34]: 17.4 µM (inactive)
GI50 [35]: 17 µM (inactive)
GI50 [36]: > 100 µM (inactive)
GI50 [54]: 75.5 µM (inactive)
GI50 [37]: 19.5 µM (inactive)
GI50 [39]: 20.4 µM (inactive)
GI50 [55]: 18 µM (inactive)
GI50 [40]: 15 µM (inactive)
GI50 [41]: 33 µM (inactive)
GI50 [42]: > 100 µM (inactive)
GI50 [43]: 16.9 µM (inactive)
GI50 [44]: 15.9 µM (inactive)
GI50 [45]: 22 µM (inactive)
GI50 [56]: 2.09 µM (inactive)
GI50 [46]: 27.7 µM (inactive)
GI50 [57]: 18.1 µM (inactive)
GI50 [58]: 17.4 µM (inactive)
GI50 [47]: 16.8 µM (inactive)
GI50 [48]: > 100 µM (inactive)
GI50 [49]: 18 µM
